Measured values from patent US11246863B2 (ALK-ABELLÓ, INC., priority 2015, dated 2022).
Where two headings read alike, the source gives them in different places.

What was measured:
[1] = Loss on drying (weight loss upon heating); format: physicochemical; settings: solid held at 40° C. 24 hours, then 125° C. oven one hour
Protocol: To assess the form of ciprofloxacin samples described in the present disclosure, a comparison experiment is conducted to evaluate the sample's loss of weight upon heating. […] The conditions and results of the experiment are summarized below: Experimental Setup—Loss on Drying: • If suspension: Pipette Cipro suspension onto filter on vacuum filter flask • Transfer filter/dry powder to 40° C. oven, hold 24 hours • Transfer solid to pre-weighed aluminum pan and weigh solid • Transfer pan to 125° C. oven, hold one hour • Weigh again and determine weight loss due to 125° C.

[2] = Particle size (D90) during manufacturing process; format: physicochemical
Staphylococcus aureus = settings: cited from earlier work
Streptococcus pneumoniae = settings: cited from earlier work
Haemophilus influenzae = settings: cited from earlier work
Moraxella catarrhalis = settings: cited from earlier work
Pseudomonas aeruginosa = settings: cited from earlier work
rats = settings: oral doses up to 100 mg/kg/day; cited from earlier work

Structure (SMILES)	Weight Loss on Drying [1]	particle size D90 ([2]; listed as Ciprofloxacin free base anhydrous API powder)	particle size D90 [2]	antimicrobial activity against isolates (Staphylococcus aureus)	antimicrobial activity against isolates (Streptococcus pneumoniae)	antimicrobial activity against isolates (Haemophilus influenzae)	antimicrobial activity against isolates (Moraxella catarrhalis)	antimicrobial activity against isolates (Pseudomonas aeruginosa)	impairment of fertility (rats)
O=C(O)c1cn(C2CC2)c2cc(N3CCNCC3)c(F)cc2c1=O [Sample 1]	0.1%	under 15 μm	–	–	–	–	–	–	–
O=C(O)c1cn(C2CC2)c2cc(N3CCNCC3)c(F)cc2c1=O [Sample 2]	11.1%	–	around 60 μm	–	–	–	–	–	–
O=C(O)c1cn(C2CC2)c2cc(N3CCNCC3)c(F)cc2c1=O [Ciprofloxacin, 1-cyclopropyl-6-fluoro-1,4-dihydro-4-oxo-7-(1-piperazinyl)-3-quinolinecarboxylic acid]	–	–	–	active against most isolates	active against most isolates	active against most isolates	active against most isolates	active against most isolates	no evidence of impairment
